According to patent publication US8940310B2, “Methods of treatment using TLR7 and/or TLR9 inhibitors” (Dynavax Technologies Corporation, priority 2010, dated 2015):
“Also recorded” adds a separate entry of the source.

Experiments:
TLR9 = biological target: T1, TLR9 (Mus musculus, UniProt Q9EQU3); experiment: CpG-C ISS-induced serum cytokines in 129 mice; type: in vivo; settings: CpG-C ISS with IRS, serum at 6 hr, listed as IRS
T1 construct: endogenous in cells; host or cells: 129 mice, whole animal (serum IFN-alpha and IL-6)
T1 sequence (Q9EQU3 26-1032): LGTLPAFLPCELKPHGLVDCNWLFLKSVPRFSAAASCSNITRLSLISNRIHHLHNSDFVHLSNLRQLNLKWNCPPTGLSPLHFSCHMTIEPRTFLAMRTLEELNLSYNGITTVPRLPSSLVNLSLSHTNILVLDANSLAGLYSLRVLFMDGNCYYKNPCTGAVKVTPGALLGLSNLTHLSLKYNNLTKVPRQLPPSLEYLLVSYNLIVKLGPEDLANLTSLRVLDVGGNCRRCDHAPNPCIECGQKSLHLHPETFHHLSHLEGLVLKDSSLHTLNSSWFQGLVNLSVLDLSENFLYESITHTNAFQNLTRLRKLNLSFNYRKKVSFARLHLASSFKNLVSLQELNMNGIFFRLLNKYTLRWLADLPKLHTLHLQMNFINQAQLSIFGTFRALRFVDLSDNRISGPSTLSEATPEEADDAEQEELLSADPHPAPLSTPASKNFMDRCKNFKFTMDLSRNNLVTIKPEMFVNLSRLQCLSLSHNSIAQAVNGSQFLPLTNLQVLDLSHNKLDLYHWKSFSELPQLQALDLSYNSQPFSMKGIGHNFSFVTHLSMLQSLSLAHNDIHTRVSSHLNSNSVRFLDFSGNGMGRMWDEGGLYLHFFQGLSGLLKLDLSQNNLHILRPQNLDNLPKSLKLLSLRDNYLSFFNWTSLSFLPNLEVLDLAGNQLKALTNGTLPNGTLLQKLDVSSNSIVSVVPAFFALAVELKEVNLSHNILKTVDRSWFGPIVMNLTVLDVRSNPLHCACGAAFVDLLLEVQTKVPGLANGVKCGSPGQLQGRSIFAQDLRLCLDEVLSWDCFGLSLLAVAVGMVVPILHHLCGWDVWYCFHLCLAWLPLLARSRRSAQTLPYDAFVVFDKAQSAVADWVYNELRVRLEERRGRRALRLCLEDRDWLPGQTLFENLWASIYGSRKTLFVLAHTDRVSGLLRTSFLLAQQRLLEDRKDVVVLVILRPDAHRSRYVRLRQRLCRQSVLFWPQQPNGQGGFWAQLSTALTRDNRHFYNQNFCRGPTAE
Procedure: 129 mice were either left untreated or treated with CpG-C ISS (50 μg/mice) alone or with IRS (50 μg/mice) and serum was collected 6 hr later. IFN-α and IL-6 was evaluated by ELISA. n=6 mice per group±standard error of the mean.

TLR7 and TLR9 = experiment: Tape stripping skin injury in 129 mice; type: in vivo; settings: 24 hr
Procedure: C57BL/6 and 129 mice were purchased from Charles River Laboratories. (NZBxNZW)F1 female mice were purchased from Jackson Laboratories and used at 18-22 weeks of age. MyD88/KO and TLR9/KO mouse colonies were maintained at Simonsen Laboratories and used with age matched C57BL/6 wild type controls at 8-12 weeks of age. Tape stripping was performed after shaving the dorsal area (3×3 cm) using 10 strokes with duct tape. IRS was administered just before tape stripping SC at a distant site. Alternatively, in (NZBxNZW)F1 mice, IRS was administered long term. In certain experiments PDC and neutrophils were depleted with 250 μg of antibody given IP at day −2 and day 0, eight hours before tape stripping. Anti-120G8 (Imgenex) was used for depletion of PDC (Asselin-Paturel et al., 2003), and anti-GR1-LY6G (clone 1A8; Biolegend) was used for depletion of neutrophils (Daley et al., 2008). […] Percentage of area with open lesions in (NZBxNZW)F1 and normal mice was evaluated with Nikon software NIS-elements.
For analysis of cellular infiltrate mice were sacrificed 24 hr later and epidermis and derma were mechanically separated followed by enzymatic digestion with 0.28 U/ML of Liberase 3 (Roche) for 20 minutes at 37° C., passed trough a 70 μm filter washed in RPMI without serum, counted and stained for flow cytometric analyses. […]

**Q.** What does the source list for “5′-TGCTCCTGGAGGGGTTGT-3′ (DNA, backbone not given here) [SEQ ID NO:42]”?
**A.** GC-induced neutrophil expansion (PDC; lupus-prone mice, blood): reduction of the GC-induced neutrophil expansion; sensitivity to GC of PDC, cDC and B cells (PDC; lupus-prone mice, spleen and blood): enhanced the sensitivity to GC of PDC, cDC and B cells; cell death without GC (PDC; mouse, in vivo): did not induce cell death without GC; CpG-ISS-induced activation, serum IFN-α and IL-6 (TLR9): prevented CpG-ISS-induced activation; also recorded: significantly reduced CpG-C ISS-mediated induction of cytokines; expression of IFN-α regulated and pro-inflammatory genes in skin (TLR7 and TLR9; 100 μg s.c. before tape stripping): significantly reduced the expression of both IFN-α regulated genes and pro-inflammatory genes; infiltration of cells including PDC and neutrophils (TLR7 and TLR9): no measurable effect on infiltration of cells
